Literature values in patent publication US7713922B2, “Perfume compositions” (Quest International Services B.V., priority 2005, dated 2010).
Counter-ions that a name gives are not always drawn.

Details: at 25° C.

Molecule	VP Class (vapour pressure class)
COC(Cc1ccccc1)OC	III (vp at least 100 micron Hg at 25° C.)
2,4-DIMETHYL-6-PHENYLDIHYDROPYRAN	I (vp greater than 3 micron Hg but less than 30 micron Hg at 25° C.)
COCCc1ccccc1 [2-PHENYLETHYL METHYL ETHER]	III (vp at least 100 micron Hg at 25° C.)
OCCCc1ccccc1 [3-PHENYLPROPYL ALCOHOL]	I (vp greater than 3 micron Hg but less than 30 micron Hg at 25° C.)
CC(=O)c1ccccc1 [ACETOPHENONE]	III (vp at least 100 micron Hg at 25° C.)
C=CCOC(=O)COc1ccccc1 [ALLYL PHENOXYACETATE]	I (vp greater than 3 micron Hg but less than 30 micron Hg at 25° C.)
CCCCCOC(=O)c1ccccc1O [AMYL SALICYLATE]	I (vp greater than 3 micron Hg but less than 30 micron Hg at 25° C.)
CC=Cc1ccc(OC)cc1 [ANETHOLE]	II (vp greater than 30 micron Hg but less than 100 micron at 25° C.)
COc1ccc(C=O)cc1 [ANISIC ALDEHYDE]	II (vp greater than 30 micron Hg but less than 100 micron at 25° C.)
CC(C)CCOCCc1ccccc1 [ANTHER, 2-PHENYLETHYL ISOAMYL ETHER]	II (vp greater than 30 micron Hg but less than 100 micron at 25° C.)
CC(C=O)Cc1ccc2c(c1)OCO2 (stereo not shown) [AQUANAL]	I (vp greater than 3 micron Hg but less than 30 micron Hg at 25° C.)
CC(=O)OCc1ccccc1 [BENZYL ACETATE]	III (vp at least 100 micron Hg at 25° C.)
CC(=O)CCc1ccccc1 [BENZYL ACETONE]	II (vp greater than 30 micron Hg but less than 100 micron at 25° C.)
C/C=C(\C)C(=O)OCc1ccccc1 [BENZYL TIGLATE, PHENYLMETHYL (2E)-2-METHYLBUT-2-ENOATE]	I (vp greater than 3 micron Hg but less than 30 micron Hg at 25° C.)
CC(C)(C)c1ccc(CCC=O)cc1 [BOURGEONAL, 3-(4-TERT.BUTYLPHENYL)PROPANAL]	I (vp greater than 3 micron Hg but less than 30 micron Hg at 25° C.)
COc1ccc(CC(C)C=O)cc1 (stereo not shown) [CANTHOXAL, 2-METHYL-3-(4-METHOXYPHENYL)PROPANAL]	I (vp greater than 3 micron Hg but less than 30 micron Hg at 25° C.)
OC/C=C/c1ccccc1 [CINNAMIC ALCOHOL]	I (vp greater than 3 micron Hg but less than 30 micron Hg at 25° C.)
CC(C=O)Cc1ccc(C(C)C)cc1 (stereo not shown) [CYCLAMEN ALDEHYDE, 2-METHYL-3-(4′-ISO-PROPYLPHENYL)PROPANAL]	I (vp greater than 3 micron Hg but less than 30 micron Hg at 25° C.)
c1ccc(Oc2ccccc2)cc1 [DIPHENYL OXIDE]	I (vp greater than 3 micron Hg but less than 30 micron Hg at 25° C.)
CCOC(C)OCCc1ccccc1 (stereo not shown) [EFETAAL, (2-{[1-(ETHYLOXY)ETHYL]OXY}ETHYL)BENZENE]	II (vp greater than 30 micron Hg but less than 100 micron at 25° C.)
CCOC(=O)c1ccccc1 [ETHYL BENZOATE]	III (vp at least 100 micron Hg at 25° C.)
C=CCc1ccc(O)c(OC)c1 [EUGENOL]	I (vp greater than 3 micron Hg but less than 30 micron Hg at 25° C.)
CCc1ccc(CC(C)(C)C=O)cc1 [FLORALOZONE, 2,2-DIMETHYL-3-(PARA-ETHYL PHENYL)PROPANAL]	I (vp greater than 3 micron Hg but less than 30 micron Hg at 25° C.)

Molecule	VP Class (vapour pressure class)
CC(C)c1cccc(C(C)CC=O)c1 (stereo not shown) [FLORHYDRAL]	I (vp greater than 3 micron Hg but less than 30 micron Hg at 25° C.)
CC(C)CCOC(=O)c1ccccc1O [ISOAMYL SALICYLATE]	I (vp greater than 3 micron Hg but less than 30 micron Hg at 25° C.)
CC(C)COC(=O)c1ccccc1O [ISOBUTYL SALICYLATE]	I (vp greater than 3 micron Hg but less than 30 micron Hg at 25° C.)
CC=Cc1ccc(O)c(OC)c1 [ISOEUGENOL]	II (vp greater than 30 micron Hg but less than 100 micron at 25° C.)
CC(C)(C)c1ccc(CC#N)cc1 [MARENIL, 4-TERT-BUTYLPHENYLACETONITRILE]	I (vp greater than 3 micron Hg but less than 30 micron Hg at 25° C.)
CC(CC=O)CCc1ccccc1 (stereo not shown) [MEFRANAL, 3-METHYL-5-PHENYLPENTANAL]	I (vp greater than 3 micron Hg but less than 30 micron Hg at 25° C.)
CC(CCO)CCc1ccccc1 (stereo not shown) [MEFROSOL, 3-METHYL-5-PHENYLPENTANOL]	I (vp greater than 3 micron Hg but less than 30 micron Hg at 25° C.)
COC(=O)c1ccccc1N [METHYL ANTHRANILATE]	I (vp greater than 3 micron Hg but less than 30 micron Hg at 25° C.)
COC(=O)c1ccccc1 [METHYL BENZOATE]	III (vp at least 100 micron Hg at 25° C.)
C=CCc1ccc(OC)cc1 [METHYL CHAVICOL, 4-METHOXY-1-(2-PROPENYL)-BENZENE]	III (vp at least 100 micron Hg at 25° C.)
COC(=O)C=Cc1ccccc1 [METHYL CINNAMATE]	I (vp greater than 3 micron Hg but less than 30 micron Hg at 25° C.)
C=CCc1ccc(OC)c(OC)c1 [METHYL EUGENOL]	I (vp greater than 3 micron Hg but less than 30 micron Hg at 25° C.)
COC(=O)Cc1ccccc1 [METHYL PHENYLACETATE]	III (vp at least 100 micron Hg at 25° C.)
COC(=O)c1ccccc1O [METHYL SALICYLATE]	III (vp at least 100 micron Hg at 25° C.)
CC(C)OCCc1ccccc1 [PETIOLE, 2-PHENYLETHYL ISOPROPYL ETHER]	III (vp at least 100 micron Hg at 25° C.)
CC(C)C(=O)OCCOc1ccccc1 [PHENOXYETHYL ISOBUTYRATE]	I (vp greater than 3 micron Hg but less than 30 micron Hg at 25° C.)
CC(=O)OCCc1ccccc1 [PHENYLETHYL ACETATE]	II (vp greater than 30 micron Hg but less than 100 micron at 25° C.)
O=COCCc1ccccc1 [PHENYLETHYL FORMATE]	II (vp greater than 30 micron Hg but less than 100 micron at 25° C.)
CC1CC(C)(c2ccccc2)CO1 (stereo not shown) [RHUBAFURAN]	II (vp greater than 30 micron Hg but less than 100 micron at 25° C.)
CC(=O)OC(C)c1ccccc1 (stereo not shown) [STYRALLYL ACETATE]	III (vp at least 100 micron Hg at 25° C.)
COc1ccc(C)cc1 [para-CRESYL METHYL ETHER]	III (vp at least 100 micron Hg at 25° C.)
COc1ccc(C(C)=O)cc1 [para-METHOXYACETOPHENONE]	II (vp greater than 30 micron Hg but less than 100 micron at 25° C.)
CC(=O)c1ccc(C)cc1 [para-METHYLACETOPHENONE]	III (vp at least 100 micron Hg at 25° C.)
